Reference: the supplement of paper PMC13380429

How the values were obtained:
Settings in all cases: 72 h
[1] = system: Caco-2; assay: relative viability EC50 (midpoint between 100% and the lowest measured viability); higher = less toxic
[2] = system: Vero E6; assay: as above
[3] = system: U2OS; assay: as above
[4] = system: Caco-2; assay: drug sensitivity score (DSS) for viability; higher = more toxic; extreme values may be limits of the assay
[5] = system: Vero E6; assay: as above
[6] = system: U2OS; assay: as above
[7] = system: Caco-2; assay: cell viability relative to DMSO; higher = less toxic
[8] = system: Vero E6; assay: as above
[9] = system: U2OS; assay: as above
[10] = system: Calu-3; assay: relative viability EC50 (midpoint between 100% and the lowest measured viability); higher = less toxic
[11] = system: HepG2; assay: drug sensitivity score (DSS) for viability; higher = more toxic; extreme values may be limits of the assay
[12] = system: Calu-3; assay: as above
[13] = system: HepG2; assay: cell viability relative to DMSO; higher = less toxic
[14] = system: Calu-3; assay: as above
[15] = system: HepG2; assay: relative viability EC50 (midpoint between 100% and the lowest measured viability); higher = less toxic

Row | Structure (SMILES) | relative viability EC50 [1] [µM] | relative viability EC50 [2] [µM] | relative viability EC50 [3] [µM] | drug sensitivity score [4] | drug sensitivity score [5] | drug sensitivity score [6] | cell viability ([7]; 1 nM) [%] | cell viability ([7]; 10 nM) [%] | cell viability ([7]; 100 nM) [%] | cell viability ([7]; 1000 nM) [%] | cell viability ([7]; 10000 nM) [%] | cell viability ([8]; 1 nM) [%] | cell viability ([8]; 10 nM) [%] | cell viability ([8]; 100 nM) [%] | cell viability ([8]; 1000 nM) [%] | cell viability ([8]; 10000 nM) [%] | cell viability ([9]; 1 nM) [%] | cell viability ([9]; 10 nM) [%] | cell viability ([9]; 100 nM) [%] | cell viability ([9]; 1000 nM) [%] | cell viability ([9]; 10000 nM) [%] | relative viability EC50 [10] [µM] | drug sensitivity score [11] | drug sensitivity score [12] | cell viability ([13]; 1 nM) [%] | cell viability ([13]; 10 nM) [%] | cell viability ([13]; 100 nM) [%] | cell viability ([13]; 1000 nM) [%] | cell viability ([13]; 10000 nM) [%] | cell viability ([14]; 1 nM) [%] | cell viability ([14]; 10 nM) [%] | cell viability ([14]; 100 nM) [%] | cell viability ([14]; 1000 nM) [%] | cell viability ([14]; 10000 nM) [%] | relative viability EC50 [15] [µM]
1 | C[C@]12CC[C@H]3[C@@H](CC[C@@]45O[C@@H]4C(O)=C(C#N)C[C@]35C)[C@@H]1CC[C@@H]2O [trilostane] | > 10 | > 10 | > 10 | 0 | 0 | 0 | 105 | 92.9 | 99.9 | 97.6 | 99.3 | 91.3 | 98.5 | 92.8 | 92.4 | 102 | 98.8 | 103 | 105 | 105 | 97.9 | – | – | – | – | – | – | – | – | – | – | – | – | – | –
2 | C[C@H]1[C@@H](O)O[C@@H]2O[C@@]3(C)CC[C@H]4[C@H](C)CC[C@@H]1[C@@]24OO3 [ARTENIMOL] | > 10 | > 10 | 1.57 | 1.7 | 0 | 6.3 | 100 | 102 | 100 | 88.9 | 79.8 | 115 | 99.1 | 101 | 103 | 95.9 | 96.5 | 104 | 92.4 | 82.4 | 31.8 | > 10 | 1.6 | 0 | 106 | 100 | 96.4 | 97.2 | 71.8 | 93.8 | 94.8 | 97.5 | 101 | 98.6 | –
3 | CC(=O)Oc1ccc(C(c2ccc(OC(C)=O)cc2)c2ccccn2)cc1 [bisacodyl] | – | > 10 | > 10 | 4.4 | 1 | 0.6 | 92.8 | 84.9 | 107 | 80.5 | 60.3 | 99.6 | 94.1 | 97.1 | 95.7 | 80.7 | 101 | 102 | 100 | 89.9 | 87.3 | > 10 | 0 | 0.1 | 98.3 | 99.5 | 104 | 95.1 | 100 | 111 | 105 | 102 | 99.2 | 88.2 | > 10
4 | O=C(O)CCc1c[nH]c2ccccc12 | – | > 10 | > 10 | – | 0 | 0 | – | – | – | – | – | 97.3 | 99.5 | 104 | 102 | 102 | 98.5 | 108 | 106 | 107 | 106 | > 10 | 0 | 0 | 116 | 96.7 | 110 | 105 | 108 | 98.7 | 95.5 | 95.2 | 90.4 | 107 | > 10
5 | Cc1ccccc1C(=O)c1ccc(Nc2ccc(Br)cc2N)cc1Cl [EO-1428] | – | > 10 | > 10 | 2.4 | 0.7 | 0.7 | 103 | 95.5 | 92.3 | 85.7 | 74 | 96.7 | 101 | 93.4 | 80.7 | 92.2 | 98.5 | 101 | 96.1 | 96.2 | 82.8 | > 10 | 0 | 0 | 97 | 96 | 98.3 | 85.6 | 108 | 93 | 96.6 | 83.4 | 90.8 | 89.5 | > 10
6 | CCCCN(CCCC)CCC(O)c1cc2c(Cl)cc(Cl)cc2c2cc(C(F)(F)F)ccc12 (stereo not given) [halofantrine] | > 10 | > 10 | > 10 | 0 | 1.9 | 0.2 | 95 | 122 | 104 | 106 | 88.7 | 109 | 103 | 99.9 | 83.3 | 83.8 | 95.2 | 102 | 99.5 | 96.3 | 88 | > 10 | 2.1 | 0 | 95.5 | 82.1 | 97.4 | 92.1 | 71.8 | 90.1 | 93.3 | 103 | 109 | 88.1 | –
7 | FC(F)(F)c1cccc(C2=CCN(CCc3ccc4ccccc4c3)CC2)c1 [xaliproden] | > 10 | > 10 | > 10 | 0 | 0 | 0 | 106 | 88.6 | 89 | 104 | 107 | 100 | 89.7 | 92.7 | 92.7 | 104 | 98.4 | 96.3 | 99.5 | 105 | 111 | > 10 | – | 0 | – | – | – | – | – | 109 | 105 | 95.5 | 109 | 95.9 | –
8 | CC(C)(C)C(=O)OCOC(=O)[C@@H]1N2C(=O)[C@@H](NC(=O)[C@H](N)c3ccccc3)[C@H]2SC1(C)C [pivampicillin] | – | > 10 | > 10 | – | 0 | 0 | – | – | – | – | – | 103 | 104 | 101 | 99.4 | 102 | 98.4 | 94 | 101 | 93.3 | 97.6 | > 10 | 0.2 | 0 | 114 | 97.7 | 91.9 | 82 | 96.9 | 110 | 108 | 97.7 | 98.4 | 117 | > 10
9 | COc1ccc(-c2cc(=O)c3c(OC)c(OC)c(OC)c(OC)c3o2)cc1OC [nobiletin] | > 10 | > 10 | > 10 | 1.1 | 0 | 0 | 86.4 | 99.4 | 100 | 95.3 | 80.9 | 102 | 104 | 94.5 | 93.5 | 91.6 | 94.4 | 103 | 94 | 99.7 | 92.3 | > 10 | 3.4 | 0.2 | 96.9 | 108 | 102 | 83.2 | 68.6 | 99.5 | 111 | 106 | 104 | 83.8 | –
10 | O=C(O)CCn1c2c(c3ccccc31)C[C@H](NS(=O)(=O)c1ccc(F)cc1)CC2 [ramatroban] | – | > 10 | > 10 | – | 0 | 0 | – | – | – | – | – | 98 | 95.7 | 92.4 | 97.4 | 104 | 100 | 98.4 | 95.8 | 101 | 104 | > 10 | 0 | 0 | 104 | 95.6 | 103 | 93.6 | 110 | 92.4 | 97.7 | 94.1 | 104 | 101 | > 10
11 | NCCCCN=C(N)N [agmatine] | – | > 10 | > 10 | 3.4 | 0 | 0 | 114 | 82.8 | 92.5 | 82.5 | 72.2 | 103 | 97.6 | 97.4 | 104 | 88.6 | 103 | 96.3 | 100 | 100 | 99.2 | > 10 | 0 | 0 | 95.5 | 96.6 | 99.4 | 110 | 94.7 | 94.8 | 95.7 | 93.2 | 89.4 | 99.9 | > 10
12 | CC(C)Oc1ccc(Cc2ccc(NC3=NCCN3)cc2)cc1 | > 10 | > 10 | > 10 | 0.5 | 0 | 0 | 102 | 96.1 | 99.3 | 99.4 | 82.3 | 96.9 | 97.6 | 101 | 99.5 | 96.7 | 95.3 | 102 | 95.3 | 98.4 | 90.7 | > 10 | 1.6 | 0 | 102 | 94.6 | 104 | 97.4 | 71.6 | 104 | 99.8 | 95.7 | 96.6 | 88.2 | –
13 | N#CSc1cc(SC#N)c(N)nc1N [PR-619] | > 10 | > 10 | > 10 | 0 | 0.8 | 0 | 93 | 91.5 | 93.6 | 92.2 | 85.4 | 92.3 | 104 | 103 | 99.6 | 77.3 | 101 | 96.4 | 99 | 94.1 | 90.6 | > 10 | 1.9 | 0 | 104 | 120 | 108 | 107 | 55.4 | 109 | 94.5 | 93.9 | 107 | 94.8 | –
